Data: ChEMBL document CHEMBL1909046, “DrugMatrix in vitro pharmacology data”

How the values were obtained:
[1] = biological target: Prostaglandin G/H synthase 1 (Homo sapiens, UniProt P23219); assay: biochemical; type: tissue-based, Platelet;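 note: inhibition of COX-1 enzyme activity, with arachidonic acid supplied as substrate; in other assays of this panel Not Active means under 50% inhibition at 10 µM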
[2] = DRUGMATRIX: Platelet-Derived Growth Factor (PDGF) radioligand binding (ligand: [125I] PDGF); type: cell-based; details: nih3t3; Not Active = under 50% inhibition at 10 µM
[3] = biological target: T1, Polyunsaturated fatty acid lipoxygenase ALOX15 (Oryctolagus cuniculus, UniProt P12530); assay: biochemical; type: tissue-based, Reticulocytes;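 note: inhibition of 15-lipoxygenase enzyme activity measured with linoleic acid as the substrate; in other assays of this panel Not Active means under 50% inhibition at 10 µM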
T1 sequence (P12530 whole entry): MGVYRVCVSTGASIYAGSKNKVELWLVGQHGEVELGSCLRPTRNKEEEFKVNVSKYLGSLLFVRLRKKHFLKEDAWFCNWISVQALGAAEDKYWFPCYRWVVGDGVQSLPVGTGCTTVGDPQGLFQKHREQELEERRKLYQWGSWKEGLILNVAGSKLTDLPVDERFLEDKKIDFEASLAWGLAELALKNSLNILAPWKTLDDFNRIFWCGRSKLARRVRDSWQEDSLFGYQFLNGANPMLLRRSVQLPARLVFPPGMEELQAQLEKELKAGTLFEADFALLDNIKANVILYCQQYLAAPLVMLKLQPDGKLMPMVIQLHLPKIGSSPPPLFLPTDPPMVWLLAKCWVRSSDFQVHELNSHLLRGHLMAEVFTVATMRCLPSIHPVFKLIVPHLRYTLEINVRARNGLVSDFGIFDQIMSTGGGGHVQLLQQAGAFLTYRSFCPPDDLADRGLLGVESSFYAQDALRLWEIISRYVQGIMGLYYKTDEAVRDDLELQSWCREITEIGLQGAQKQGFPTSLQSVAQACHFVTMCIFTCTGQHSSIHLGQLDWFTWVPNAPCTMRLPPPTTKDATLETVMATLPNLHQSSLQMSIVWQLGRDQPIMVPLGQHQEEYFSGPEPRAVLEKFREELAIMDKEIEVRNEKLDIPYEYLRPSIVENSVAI

Calcitonin receptor = biological target: T2, Calcitonin receptor (Homo sapiens, UniProt P30988); type: cell membranes, Membrane; details: t47d; note: in other assays of this panel Not Active means under 50% inhibition at 10 µM
T2 sequence (P30988 whole entry): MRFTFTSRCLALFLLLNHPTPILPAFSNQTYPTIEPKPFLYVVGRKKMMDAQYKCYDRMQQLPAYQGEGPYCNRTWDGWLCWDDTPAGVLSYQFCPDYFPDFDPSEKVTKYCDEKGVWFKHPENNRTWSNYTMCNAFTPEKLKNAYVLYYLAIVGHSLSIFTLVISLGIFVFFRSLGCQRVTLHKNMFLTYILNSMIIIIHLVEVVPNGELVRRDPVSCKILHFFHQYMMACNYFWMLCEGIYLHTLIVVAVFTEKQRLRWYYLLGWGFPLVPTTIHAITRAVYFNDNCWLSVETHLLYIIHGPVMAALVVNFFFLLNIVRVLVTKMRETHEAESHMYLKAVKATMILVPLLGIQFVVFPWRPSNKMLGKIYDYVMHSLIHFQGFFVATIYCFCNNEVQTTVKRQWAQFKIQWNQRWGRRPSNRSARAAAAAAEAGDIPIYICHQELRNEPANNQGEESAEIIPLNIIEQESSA

Cathepsin G = biological target: T3, Cathepsin G (Homo sapiens, UniProt P08311); type: tissue-based; details: neutrophil;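 note: inhibition of Cathepsin G enzyme activity, tested on an AMC-conjugated peptide substrate; in other assays of this panel Not Active means under 50% inhibition at 10 µM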
T3 sequence (P08311 whole entry): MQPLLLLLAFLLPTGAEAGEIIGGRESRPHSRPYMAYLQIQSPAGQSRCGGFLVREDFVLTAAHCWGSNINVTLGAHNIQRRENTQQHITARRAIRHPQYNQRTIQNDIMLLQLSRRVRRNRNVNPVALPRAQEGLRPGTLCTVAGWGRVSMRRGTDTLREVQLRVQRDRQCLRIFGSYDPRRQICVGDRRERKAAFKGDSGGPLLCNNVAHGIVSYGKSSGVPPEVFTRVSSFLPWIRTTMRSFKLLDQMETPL

[4] = biological target: Beta-3 adrenergic receptor (Homo sapiens, UniProt P13945); assay: DRUGMATRIX: Adrenergic beta3 radioligand binding (ligand: [125I] Cyanopindolol); type: cell membranes, HEK293, Membrane; details: hek293; Not Active = under 50% inhibition at 10 µM
[5] = biological target: Vascular endothelial growth factor receptor 1 (Homo sapiens, UniProt P17948); type: cell-based; details: huvec; note: in other assays of this panel Not Active means under 50% inhibition at 10 µM
Cytochrome P450 2D6 = Cytochrome P450 2D6 (Homo sapiens, UniProt P10635); details: bti-tn-5b1-4; note: in other assays of this panel Not Active means under 50% inhibition at 10 µM
Sequence of Cytochrome P450 2D6 (P10635 whole entry): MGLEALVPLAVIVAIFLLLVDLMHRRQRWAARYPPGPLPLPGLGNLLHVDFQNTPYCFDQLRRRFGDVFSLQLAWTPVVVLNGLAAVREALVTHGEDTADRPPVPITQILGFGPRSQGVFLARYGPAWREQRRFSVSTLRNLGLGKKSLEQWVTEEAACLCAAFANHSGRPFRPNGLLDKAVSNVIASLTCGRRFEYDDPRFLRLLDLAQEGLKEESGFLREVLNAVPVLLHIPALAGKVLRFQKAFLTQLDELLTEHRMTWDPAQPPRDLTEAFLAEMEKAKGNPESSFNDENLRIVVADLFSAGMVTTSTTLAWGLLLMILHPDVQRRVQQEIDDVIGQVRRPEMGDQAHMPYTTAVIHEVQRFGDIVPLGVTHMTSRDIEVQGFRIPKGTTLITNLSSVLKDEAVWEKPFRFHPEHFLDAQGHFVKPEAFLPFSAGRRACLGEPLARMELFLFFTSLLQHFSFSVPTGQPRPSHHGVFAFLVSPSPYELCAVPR

Sequence of Beta-3 adrenergic receptor (P13945 whole entry): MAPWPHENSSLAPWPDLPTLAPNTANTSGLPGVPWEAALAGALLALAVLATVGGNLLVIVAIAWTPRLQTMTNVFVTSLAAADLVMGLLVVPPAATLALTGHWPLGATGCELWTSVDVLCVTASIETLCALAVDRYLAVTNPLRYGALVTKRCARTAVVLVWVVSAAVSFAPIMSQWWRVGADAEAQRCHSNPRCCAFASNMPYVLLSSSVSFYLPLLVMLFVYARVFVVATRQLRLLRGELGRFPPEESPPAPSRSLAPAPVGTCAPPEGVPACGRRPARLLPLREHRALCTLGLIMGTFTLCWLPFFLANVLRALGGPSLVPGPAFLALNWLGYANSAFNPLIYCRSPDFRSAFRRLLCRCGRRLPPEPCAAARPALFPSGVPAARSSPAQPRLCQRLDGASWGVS
Sequence of Vascular endothelial growth factor receptor 1 (P17948 whole entry): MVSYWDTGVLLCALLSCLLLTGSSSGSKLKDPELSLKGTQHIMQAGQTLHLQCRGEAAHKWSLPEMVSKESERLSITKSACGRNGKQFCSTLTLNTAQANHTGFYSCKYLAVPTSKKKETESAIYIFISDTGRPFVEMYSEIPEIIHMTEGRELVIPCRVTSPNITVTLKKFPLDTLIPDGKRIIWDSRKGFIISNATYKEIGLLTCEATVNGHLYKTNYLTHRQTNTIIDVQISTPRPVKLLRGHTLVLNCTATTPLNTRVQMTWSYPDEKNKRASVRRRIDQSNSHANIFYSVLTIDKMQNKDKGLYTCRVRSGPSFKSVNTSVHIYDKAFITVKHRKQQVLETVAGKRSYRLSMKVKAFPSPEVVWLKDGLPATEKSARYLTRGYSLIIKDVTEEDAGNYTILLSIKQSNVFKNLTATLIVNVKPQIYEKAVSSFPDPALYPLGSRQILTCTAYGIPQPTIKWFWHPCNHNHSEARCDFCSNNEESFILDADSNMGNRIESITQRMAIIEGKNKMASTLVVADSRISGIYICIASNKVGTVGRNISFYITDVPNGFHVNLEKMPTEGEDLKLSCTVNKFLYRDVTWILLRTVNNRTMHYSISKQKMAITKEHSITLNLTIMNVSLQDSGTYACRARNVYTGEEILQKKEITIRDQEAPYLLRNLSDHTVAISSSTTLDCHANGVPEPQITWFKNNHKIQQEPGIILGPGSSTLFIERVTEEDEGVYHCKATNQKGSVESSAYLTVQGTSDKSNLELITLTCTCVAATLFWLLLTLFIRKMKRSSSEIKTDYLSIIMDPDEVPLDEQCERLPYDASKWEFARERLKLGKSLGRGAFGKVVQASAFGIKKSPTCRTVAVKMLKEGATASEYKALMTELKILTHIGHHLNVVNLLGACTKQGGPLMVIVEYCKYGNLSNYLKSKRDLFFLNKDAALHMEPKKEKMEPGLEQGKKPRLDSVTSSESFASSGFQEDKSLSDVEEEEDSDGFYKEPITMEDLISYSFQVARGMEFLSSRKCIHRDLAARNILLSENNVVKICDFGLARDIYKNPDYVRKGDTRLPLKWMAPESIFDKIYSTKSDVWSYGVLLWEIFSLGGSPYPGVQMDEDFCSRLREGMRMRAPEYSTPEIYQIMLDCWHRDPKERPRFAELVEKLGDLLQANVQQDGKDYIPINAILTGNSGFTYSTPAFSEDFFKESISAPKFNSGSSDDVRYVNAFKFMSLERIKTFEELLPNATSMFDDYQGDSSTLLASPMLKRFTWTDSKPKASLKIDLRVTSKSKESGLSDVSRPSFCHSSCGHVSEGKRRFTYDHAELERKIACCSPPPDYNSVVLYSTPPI
Sequence of Prostaglandin G/H synthase 1 (P23219 whole entry): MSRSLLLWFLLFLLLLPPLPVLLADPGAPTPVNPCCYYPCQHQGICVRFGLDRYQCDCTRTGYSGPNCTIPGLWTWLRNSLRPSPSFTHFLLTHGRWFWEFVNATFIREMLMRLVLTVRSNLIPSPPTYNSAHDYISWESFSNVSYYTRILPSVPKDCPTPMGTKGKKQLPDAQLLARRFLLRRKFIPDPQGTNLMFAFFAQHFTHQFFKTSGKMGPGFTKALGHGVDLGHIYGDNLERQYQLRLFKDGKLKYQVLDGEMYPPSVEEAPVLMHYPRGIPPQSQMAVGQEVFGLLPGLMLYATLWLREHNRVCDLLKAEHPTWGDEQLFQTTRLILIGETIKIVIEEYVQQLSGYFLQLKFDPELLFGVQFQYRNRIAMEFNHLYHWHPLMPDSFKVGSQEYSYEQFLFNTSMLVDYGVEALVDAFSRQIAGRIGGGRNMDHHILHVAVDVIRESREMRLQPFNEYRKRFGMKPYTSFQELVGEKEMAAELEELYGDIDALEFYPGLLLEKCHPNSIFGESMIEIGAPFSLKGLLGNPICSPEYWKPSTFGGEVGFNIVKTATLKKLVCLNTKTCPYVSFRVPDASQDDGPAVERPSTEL

C=CCC1(C(C)CCC)C(=O)NC(=O)NC1=O (stereo unspecified) [SECOBARBITAL]
IC50 ([1]; platelet): Not Active
IC50 [2]: Not Active
Ki [2]: Not Active
IC50 ([3]; reticulocytes): Not Active
IC50 (Calcitonin receptor): Not Active
IC50 (Cathepsin G): Not Active
IC50 [4]: Not Active
IC50 [5]: Not Active
IC50 (Cytochrome P450 2D6): Not Active
Ki (Cytochrome P450 2D6): Not Active

C[C@@H]1CN(c2c(F)c(N)c3c(=O)c(C(=O)O)cn(C4CC4)c3c2F)C[C@H](C)N1 [SPARFLOXACIN]
IC50 ([1]; platelet): Not Active
IC50 [2]: Not Active
Ki [2]: Not Active
IC50 ([3]; reticulocytes): Not Active
IC50 (Calcitonin receptor): Not Active
IC50 (Cathepsin G): Not Active
IC50 [4]: Not Active
IC50 [5]: Not Active
IC50 (Cytochrome P450 2D6): Not Active
Ki (Cytochrome P450 2D6): Not Active

Cc1noc(NS(=O)(=O)c2ccc(N)cc2)c1C [SULFISOXAZOLE]
IC50 ([1]; platelet): Not Active
IC50 [2]: Not Active
Ki [2]: Not Active
IC50 ([3]; reticulocytes): Not Active
IC50 (Calcitonin receptor): Not Active
IC50 (Cathepsin G): Not Active
IC50 [4]: Not Active
IC50 [5]: Not Active
IC50 (Cytochrome P450 2D6): Not Active
Ki (Cytochrome P450 2D6): Not Active

Nc1nc2nc[nH]c2c(=S)[nH]1 [THIOGUANINE]
IC50 ([1]; read-out: IC50): 0.601 µM
IC50 [2]: Not Active
Ki [2]: Not Active
IC50 ([3]; read-out: IC50): 16.2 µM
IC50 (Calcitonin receptor): Not Active
IC50 (Cathepsin G): Not Active
IC50 [4]: Not Active
IC50 [5]: Not Active
IC50 (Cytochrome P450 2D6): Not Active
Ki (Cytochrome P450 2D6): Not Active

Cc1cccc(N(C)C(=S)Oc2ccc3ccccc3c2)c1 [TOLNAFTATE]
IC50 ([1]; platelet): Not Active
IC50 [2]: Not Active
Ki [2]: Not Active
IC50 ([3]; reticulocytes): Not Active
IC50 (Calcitonin receptor): Not Active
IC50 (Cathepsin G): Not Active
IC50 [4]: Not Active
IC50 [5]: Not Active
IC50 (Cytochrome P450 2D6): Not Active
Ki (Cytochrome P450 2D6): Not Active

NC[C@H]1CC[C@H](C(=O)O)CC1 [TRANEXAMIC ACID]
IC50 ([1]; platelet): Not Active
IC50 [2]: Not Active
Ki [2]: Not Active
IC50 ([3]; reticulocytes): Not Active
IC50 (Calcitonin receptor): Not Active
IC50 (Cathepsin G): Not Active
IC50 [4]: Not Active
IC50 [5]: Not Active
IC50 (Cytochrome P450 2D6): Not Active
Ki (Cytochrome P450 2D6): Not Active

CC1(C)O[C@@H]2C[C@H]3[C@@H]4CCC5=CC(=O)C=C[C@]5(C)[C@@]4(F)[C@@H](O)C[C@]3(C)[C@]2(C(=O)CO)O1 [TRIAMCINOLONE ACETONIDE]
IC50 ([1]; platelet): Not Active
IC50 [2]: Not Active
Ki [2]: Not Active
IC50 ([3]; reticulocytes): Not Active
IC50 (Calcitonin receptor): Not Active
IC50 (Cathepsin G): Not Active
IC50 [4]: Not Active
IC50 [5]: Not Active
IC50 (Cytochrome P450 2D6): Not Active
Ki (Cytochrome P450 2D6): Not Active

NS(=O)(=O)c1cc2c(cc1Cl)NC(C(Cl)Cl)NS2(=O)=O (stereo unspecified) [TRICHLORMETHIAZIDE]
IC50 ([1]; platelet): Not Active
IC50 [2]: Not Active
Ki [2]: Not Active
IC50 ([3]; reticulocytes): Not Active
IC50 (Calcitonin receptor): Not Active
IC50 (Cathepsin G): Not Active
IC50 [4]: Not Active
IC50 [5]: Not Active
IC50 (Cytochrome P450 2D6): Not Active
Ki (Cytochrome P450 2D6): Not Active

Cc1c(C)c2c(c(C)c1O)CCC(C)(COc1ccc(CC3SC(=O)NC3=O)cc1)O2 (stereo unspecified) [TROGLITAZONE]
IC50 ([1]; platelet): Not Active
IC50 [2]: Not Active
Ki [2]: Not Active
IC50 ([3]; reticulocytes): Not Active
IC50 (Calcitonin receptor): Not Active
IC50 (Cathepsin G): Not Active
IC50 [4]: Not Active
IC50 [5]: Not Active
IC50 (Cytochrome P450 2D6): Not Active
Ki (Cytochrome P450 2D6): Not Active

N[C@@H]1[C@H]2CN(c3nc4c(cc3F)c(=O)c(C(=O)O)cn4-c3ccc(F)cc3F)C[C@@H]12 [TROVAFLOXACIN]
IC50 ([1]; platelet): Not Active
IC50 [2]: Not Active
Ki [2]: Not Active
IC50 ([3]; reticulocytes): Not Active
IC50 (Calcitonin receptor): Not Active
IC50 (Cathepsin G): Not Active
IC50 [4]: Not Active
IC50 [5]: Not Active
IC50 (Cytochrome P450 2D6): Not Active
Ki (Cytochrome P450 2D6): Not Active

N#CC(C#N)=Cc1ccc(O)c(O)c1 [TYRPHOSTIN 23]
IC50 ([1]; platelet): Not Active
IC50 [2]: Not Active
Ki [2]: Not Active
IC50 ([3]; reticulocytes): Not Active
IC50 (Calcitonin receptor): Not Active
IC50 (Cathepsin G): Not Active
IC50 [4]: Not Active
IC50 [5]: Not Active
IC50 (Cytochrome P450 2D6): Not Active
Ki (Cytochrome P450 2D6): Not Active

CC[C@]1(O)C[C@H]2CN(CCc3c([nH]c4ccccc34)[C@@](C(=O)OC)(c3cc4c(cc3OC)N(C=O)[C@H]3[C@@](O)(C(=O)OC)[C@H](OC(C)=O)[C@]5(CC)C=CCN6CC[C@]43[C@@H]65)C2)C1 [VINCRISTINE]
IC50 ([1]; platelet): Not Active
IC50 [2]: Not Active
Ki [2]: Not Active
IC50 ([3]; reticulocytes): Not Active
IC50 (Calcitonin receptor): Not Active
IC50 (Cathepsin G): Not Active
IC50 [4]: Not Active
IC50 [5]: Not Active
IC50 (Cytochrome P450 2D6): Not Active
Ki (Cytochrome P450 2D6): Not Active

CCCOc1ccccc1-c1nc2nn[nH]c2c(=O)[nH]1 [ZAPRINAST]
IC50 ([1]; platelet): Not Active
IC50 [2]: Not Active
Ki [2]: Not Active
IC50 ([3]; reticulocytes): Not Active
IC50 (Calcitonin receptor): Not Active
IC50 (Cathepsin G): Not Active
IC50 [4]: Not Active
IC50 [5]: Not Active
IC50 (Cytochrome P450 2D6): Not Active
Ki (Cytochrome P450 2D6): Not Active

SODIUM NITROPRUSSIDE
IC50 ([1]; platelet): Not Active
Ki ([1]; platelet): Not Active
IC50 [2]: Not Active
Ki [2]: Not Active
IC50 ([3]; reticulocytes): Not Active
Ki ([3]; reticulocytes): Not Active
IC50 (Calcitonin receptor): Not Active
Ki (Calcitonin receptor): Not Active
IC50 (Cathepsin G): Not Active
Ki (Cathepsin G): Not Active
IC50 [4]: Not Active
Ki [4]: Not Active
IC50 [5]: Not Active
Ki [5]: Not Active
IC50 (Cytochrome P450 2D6): Not Active
Ki (Cytochrome P450 2D6): Not Active
